Measurements as given in patent publication US20190292189A1, “LIM KINASE INHIBITORS” (VIRONGY, LLC, priority 2016, published 2019).
Where two headings read alike, the source gives them in different places.

Legend:
P450 3A4 = P450 3A4 (Homo sapiens, UniProt P08684); assay: P450 inhibition at 10 μM; format: in vitro ADME
[1] = Microsomal stability, human liver microsomes; format: in vitro ADME
ROCK-II = ROCK-II (Homo sapiens, UniProt O75116); assay: ROCK-II biochemical counter-screen; conditions: means of ≥2 experiments, read-out: IC50 (nM) ROCK-II
Chain of ROCK-II (O75116 whole entry, species assumed): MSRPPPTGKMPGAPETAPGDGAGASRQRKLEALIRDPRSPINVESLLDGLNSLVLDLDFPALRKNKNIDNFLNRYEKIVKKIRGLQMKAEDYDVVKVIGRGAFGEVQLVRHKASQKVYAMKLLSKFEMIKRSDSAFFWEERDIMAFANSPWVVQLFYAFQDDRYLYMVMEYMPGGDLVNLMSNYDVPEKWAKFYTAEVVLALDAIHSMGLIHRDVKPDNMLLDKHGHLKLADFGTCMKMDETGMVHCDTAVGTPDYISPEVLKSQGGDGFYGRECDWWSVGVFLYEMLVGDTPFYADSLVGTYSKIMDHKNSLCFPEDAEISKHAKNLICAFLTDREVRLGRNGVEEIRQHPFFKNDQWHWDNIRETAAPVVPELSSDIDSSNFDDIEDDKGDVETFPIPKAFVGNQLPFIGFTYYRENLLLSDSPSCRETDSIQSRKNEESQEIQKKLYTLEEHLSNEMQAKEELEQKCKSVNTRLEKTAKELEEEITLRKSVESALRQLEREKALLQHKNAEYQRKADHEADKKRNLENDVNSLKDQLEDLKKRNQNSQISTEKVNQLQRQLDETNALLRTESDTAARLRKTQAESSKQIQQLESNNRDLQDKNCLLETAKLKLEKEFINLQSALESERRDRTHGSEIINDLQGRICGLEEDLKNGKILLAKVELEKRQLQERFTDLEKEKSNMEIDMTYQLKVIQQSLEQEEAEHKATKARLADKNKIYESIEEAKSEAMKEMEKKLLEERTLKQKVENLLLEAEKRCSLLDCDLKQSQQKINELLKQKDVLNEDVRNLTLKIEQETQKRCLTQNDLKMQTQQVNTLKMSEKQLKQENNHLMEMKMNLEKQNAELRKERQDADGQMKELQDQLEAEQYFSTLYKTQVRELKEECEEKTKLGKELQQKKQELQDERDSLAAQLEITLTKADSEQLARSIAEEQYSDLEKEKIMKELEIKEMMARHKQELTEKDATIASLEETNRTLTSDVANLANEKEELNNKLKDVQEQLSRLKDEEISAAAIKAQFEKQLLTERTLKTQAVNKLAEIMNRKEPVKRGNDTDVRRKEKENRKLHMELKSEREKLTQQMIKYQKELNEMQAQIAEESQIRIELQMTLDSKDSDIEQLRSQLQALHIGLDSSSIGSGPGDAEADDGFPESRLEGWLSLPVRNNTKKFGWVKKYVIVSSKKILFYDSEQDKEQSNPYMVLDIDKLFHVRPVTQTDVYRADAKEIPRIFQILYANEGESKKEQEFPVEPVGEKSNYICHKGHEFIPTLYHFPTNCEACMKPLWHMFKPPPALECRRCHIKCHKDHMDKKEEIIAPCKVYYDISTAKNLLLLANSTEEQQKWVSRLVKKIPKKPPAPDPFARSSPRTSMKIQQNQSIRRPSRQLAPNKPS

P450 2C9 = P450 2C9 (Homo sapiens, UniProt P11712); assay: P450 inhibition at 10 μM; format: in vitro ADME
Chain of P450 2C9 (P11712 whole entry): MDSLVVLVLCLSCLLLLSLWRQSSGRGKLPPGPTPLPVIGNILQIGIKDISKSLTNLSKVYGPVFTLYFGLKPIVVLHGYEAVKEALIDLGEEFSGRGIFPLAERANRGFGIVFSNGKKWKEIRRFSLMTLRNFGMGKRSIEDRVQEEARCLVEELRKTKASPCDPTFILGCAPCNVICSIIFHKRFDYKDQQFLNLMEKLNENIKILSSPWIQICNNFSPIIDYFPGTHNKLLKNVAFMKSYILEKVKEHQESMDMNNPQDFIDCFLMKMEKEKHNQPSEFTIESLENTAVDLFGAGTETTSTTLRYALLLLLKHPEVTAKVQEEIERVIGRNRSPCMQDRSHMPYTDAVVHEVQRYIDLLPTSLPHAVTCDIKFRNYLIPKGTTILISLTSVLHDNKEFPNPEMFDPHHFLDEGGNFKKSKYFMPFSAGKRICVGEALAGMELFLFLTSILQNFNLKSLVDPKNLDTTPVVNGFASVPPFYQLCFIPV

Limk1 = Limk1 (Homo sapiens, UniProt P53667); assay: Limk1 biochemical assay (Reaction Biology, 10-dose IC50); set-up: His; purchased Reaction Biology Corporation; host or cells: insect cells
Chain of Limk1 (P53667 285-638): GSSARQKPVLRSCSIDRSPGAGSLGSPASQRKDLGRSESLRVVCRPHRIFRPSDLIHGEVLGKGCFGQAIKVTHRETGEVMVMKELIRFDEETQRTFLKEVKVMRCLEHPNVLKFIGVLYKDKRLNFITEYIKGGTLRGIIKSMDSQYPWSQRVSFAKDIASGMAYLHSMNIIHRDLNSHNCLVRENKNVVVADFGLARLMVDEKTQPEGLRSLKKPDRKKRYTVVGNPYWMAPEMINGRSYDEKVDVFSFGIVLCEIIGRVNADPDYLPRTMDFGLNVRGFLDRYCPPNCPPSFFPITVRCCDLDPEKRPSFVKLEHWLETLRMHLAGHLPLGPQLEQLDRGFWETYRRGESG

[2] = Microsomal stability, rat liver microsomes; format: in vitro ADME
P450 2D6 = P450 2D6 (Homo sapiens, UniProt P10635); assay: P450 inhibition at 10 μM; format: in vitro ADME
Chain of P450 2D6 (P10635 whole entry): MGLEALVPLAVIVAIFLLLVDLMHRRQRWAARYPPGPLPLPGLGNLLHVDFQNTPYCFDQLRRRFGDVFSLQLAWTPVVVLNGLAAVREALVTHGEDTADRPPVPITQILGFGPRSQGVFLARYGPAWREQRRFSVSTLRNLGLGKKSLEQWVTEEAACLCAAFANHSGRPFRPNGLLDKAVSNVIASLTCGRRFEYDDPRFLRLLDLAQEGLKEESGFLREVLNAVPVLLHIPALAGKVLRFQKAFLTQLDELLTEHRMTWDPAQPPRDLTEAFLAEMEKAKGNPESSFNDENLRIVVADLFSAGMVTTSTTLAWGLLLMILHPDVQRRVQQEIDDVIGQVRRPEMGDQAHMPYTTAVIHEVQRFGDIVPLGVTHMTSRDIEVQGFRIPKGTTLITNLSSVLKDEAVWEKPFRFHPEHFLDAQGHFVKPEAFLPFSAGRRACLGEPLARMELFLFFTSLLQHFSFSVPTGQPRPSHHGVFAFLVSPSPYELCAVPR

ROCK-I = ROCK-I (Homo sapiens, UniProt Q13464); assay: ROCK-I biochemical counter-screen; conditions: Table 6; read-out: Biochemical Inhibition IC50 (nM) ROCK-I
Chain of ROCK-I (Q13464 whole entry, species assumed): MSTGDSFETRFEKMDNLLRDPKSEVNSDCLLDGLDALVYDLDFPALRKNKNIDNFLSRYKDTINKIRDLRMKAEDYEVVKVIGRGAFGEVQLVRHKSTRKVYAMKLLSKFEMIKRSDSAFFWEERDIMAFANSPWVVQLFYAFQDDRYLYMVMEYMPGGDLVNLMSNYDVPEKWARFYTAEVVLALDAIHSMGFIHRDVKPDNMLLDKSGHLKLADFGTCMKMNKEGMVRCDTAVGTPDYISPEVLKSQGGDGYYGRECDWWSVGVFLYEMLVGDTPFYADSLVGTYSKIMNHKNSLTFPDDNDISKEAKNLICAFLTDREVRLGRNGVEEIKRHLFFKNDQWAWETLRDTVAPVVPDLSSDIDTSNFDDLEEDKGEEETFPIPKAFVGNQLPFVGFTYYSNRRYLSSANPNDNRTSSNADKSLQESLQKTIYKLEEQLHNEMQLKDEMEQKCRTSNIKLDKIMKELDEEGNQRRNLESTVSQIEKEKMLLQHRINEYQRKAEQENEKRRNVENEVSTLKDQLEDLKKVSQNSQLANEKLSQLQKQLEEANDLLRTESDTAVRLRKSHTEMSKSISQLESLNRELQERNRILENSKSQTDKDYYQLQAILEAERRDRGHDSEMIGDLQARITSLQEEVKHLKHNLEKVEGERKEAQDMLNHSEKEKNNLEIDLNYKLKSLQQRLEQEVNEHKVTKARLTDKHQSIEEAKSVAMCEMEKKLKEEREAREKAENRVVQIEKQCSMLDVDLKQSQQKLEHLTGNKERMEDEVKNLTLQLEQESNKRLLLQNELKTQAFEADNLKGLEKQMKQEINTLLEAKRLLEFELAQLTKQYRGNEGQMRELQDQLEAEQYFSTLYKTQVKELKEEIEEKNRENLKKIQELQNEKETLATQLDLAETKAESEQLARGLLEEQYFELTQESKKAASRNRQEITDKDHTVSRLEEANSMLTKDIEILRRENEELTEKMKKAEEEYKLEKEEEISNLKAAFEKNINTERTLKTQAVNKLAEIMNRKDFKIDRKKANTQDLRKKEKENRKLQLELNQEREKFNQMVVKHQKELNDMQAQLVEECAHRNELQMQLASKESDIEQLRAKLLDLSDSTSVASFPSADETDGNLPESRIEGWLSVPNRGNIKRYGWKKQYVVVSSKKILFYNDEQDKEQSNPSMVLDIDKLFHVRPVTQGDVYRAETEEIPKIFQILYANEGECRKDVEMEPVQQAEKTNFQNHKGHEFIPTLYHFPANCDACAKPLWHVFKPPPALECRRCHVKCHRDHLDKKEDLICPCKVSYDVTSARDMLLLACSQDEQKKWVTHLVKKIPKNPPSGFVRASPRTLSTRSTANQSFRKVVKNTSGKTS

P450 1A2 = target: T1, P450 1A2 (Homo sapiens, UniProt P05177)
T1 sequence (P05177 1-516): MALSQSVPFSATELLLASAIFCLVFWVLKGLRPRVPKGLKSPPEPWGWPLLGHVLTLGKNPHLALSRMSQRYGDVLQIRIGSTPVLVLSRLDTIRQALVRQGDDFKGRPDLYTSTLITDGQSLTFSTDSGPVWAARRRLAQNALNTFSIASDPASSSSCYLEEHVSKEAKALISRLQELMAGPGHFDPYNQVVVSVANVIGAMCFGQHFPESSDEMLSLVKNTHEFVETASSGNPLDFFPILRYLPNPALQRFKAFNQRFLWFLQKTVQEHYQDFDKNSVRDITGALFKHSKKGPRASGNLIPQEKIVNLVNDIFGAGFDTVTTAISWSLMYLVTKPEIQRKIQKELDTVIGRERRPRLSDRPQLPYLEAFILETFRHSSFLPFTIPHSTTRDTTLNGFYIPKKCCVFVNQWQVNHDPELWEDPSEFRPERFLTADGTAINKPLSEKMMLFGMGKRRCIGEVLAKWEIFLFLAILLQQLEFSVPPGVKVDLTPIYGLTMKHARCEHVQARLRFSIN

[3] = Plasma pharmacokinetics studies on rats; conditions: rats; for AUC (iv) / Cl (iv) / T1/2 (iv) / Yd (iv) / Cmax: iv dosing 1 mg/kg; for F (%) (po): po dosing 2 mg/kg; for Cmax: read-out: Cmax (iv)
Experimental: In vivo pharmacokinetics (PK) studies were conducted for selected compounds during the whole optimization at various stages in order to identify structural elements that are favorable for in vivo applications, and/or to evaluate the feasibility of optimized Limk inhibitors for animal studies.

JNK3 = JNK3 (Homo sapiens, UniProt P53779); assay: JNK3 biochemical counter-screen; conditions: Table 6; read-out: Biochemical Inhibition IC50 (nM) JNK3
Chain of JNK3 (P53779 whole entry, species assumed): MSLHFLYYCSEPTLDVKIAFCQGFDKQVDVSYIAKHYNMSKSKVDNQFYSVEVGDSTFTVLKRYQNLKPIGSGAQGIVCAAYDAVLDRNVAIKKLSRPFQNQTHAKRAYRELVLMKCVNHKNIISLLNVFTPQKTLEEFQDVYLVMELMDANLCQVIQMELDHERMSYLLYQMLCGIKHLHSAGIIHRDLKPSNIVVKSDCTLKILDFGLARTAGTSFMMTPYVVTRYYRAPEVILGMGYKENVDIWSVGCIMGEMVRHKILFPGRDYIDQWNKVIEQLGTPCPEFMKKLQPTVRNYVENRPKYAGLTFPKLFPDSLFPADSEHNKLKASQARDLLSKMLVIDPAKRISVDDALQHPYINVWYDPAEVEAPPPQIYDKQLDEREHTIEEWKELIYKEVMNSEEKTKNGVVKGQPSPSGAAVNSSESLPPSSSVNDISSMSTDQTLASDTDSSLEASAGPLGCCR

[4] = system: cofilin phosphorylation in A7r5 cells; assay: In-cell Western assay of cofilin phosphorylation in A7r5 cells; format: cell-based; conditions: A7R5, read-out: Cofilin Phosphorylation In A7r5 Cells (IC50, nM)
Experimental: A7r5 (15,000 cells/well) were plated in a clear-bottomed Packard View black 96-well plate in 100 μl of 10% FBS DMEM:F12 medium and were allowed to attach overnight. The next day, the cells were serum starved in 1% FBS DMEM medium for 2 hr and then treated with the compounds for 1 hr. […] Next day, they were washed twice with PBS-0.1% Tween 20 (PBST) washing solution for 5 min each at room temperature on the orbital shaker, followed by one wash with Licor Blocking Buffer containing 0.05% Tween-20 for 5 min on the shaker at RT. The cells were then incubated with secondary antibody goat anti-rabbit IR800 (1:500 dilution) for 1 hr at RT in the dark (covered the plate with foil) in Licor blocking buffer-containing Tween-20. Following this, cells were washed twice with PBST for 5 min each at room temperature and then once with Licor blocking buffer-containing 0.05% Tween-20. The wells were then incubated with ToPro 3 stain (nucleic acid staining), diluted 1:4000 in Licor blocking buffer or Licor blocking buffer with 0.05% Tween-20 for 30 min at room temperature in the dark. Finally the plates were washed twice with PBS and analyzed using the Odyssey LICOR Infrared Scanner.

HIV-1(NL4-3) = assay: microbe, parasite or virus in culture; format: cell-based; conditions: […]; dosages with no detectable cytotoxicity
[5] = Table 4, means of ≥2 experiments, read-out: IC50 (nM) Limk1

Chain of P450 3A4 (P08684 whole entry): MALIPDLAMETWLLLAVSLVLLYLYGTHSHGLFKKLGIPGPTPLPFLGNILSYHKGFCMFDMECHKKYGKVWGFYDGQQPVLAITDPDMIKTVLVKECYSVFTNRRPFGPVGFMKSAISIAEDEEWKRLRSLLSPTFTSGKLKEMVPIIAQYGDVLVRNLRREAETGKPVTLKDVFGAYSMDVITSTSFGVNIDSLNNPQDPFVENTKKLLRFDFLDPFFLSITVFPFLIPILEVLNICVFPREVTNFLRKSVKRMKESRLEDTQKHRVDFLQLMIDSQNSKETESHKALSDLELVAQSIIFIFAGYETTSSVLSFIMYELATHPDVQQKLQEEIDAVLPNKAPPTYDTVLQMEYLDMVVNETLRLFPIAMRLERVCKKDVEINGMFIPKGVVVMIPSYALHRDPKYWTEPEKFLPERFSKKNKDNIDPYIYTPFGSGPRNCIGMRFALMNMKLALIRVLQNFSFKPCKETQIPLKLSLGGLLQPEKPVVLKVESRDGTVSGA

Compound | P450 % inh. at 10 μM 3A4 (P450 3A4) | Microsomal Stability t1/2 (min) Human [1] | P450 % inh. at 10 μM 2C9 (P450 2C9) | Microsomal Stability t1/2 (min) Rat ([2]; rat liver microsomes) | P450 % inh. at 10 μM 2D6 (P450 2D6) | IC50 (ROCK-I) | P450 % inh. at 10 μM 1A2 (P450 1A2; 10 μM) | IC50 (JNK3) | IC50 (ROCK-II; Table 4) | IC50 (Limk1; Table 8, read-out: LIMK1 IC50) | X4 HIV infection (screen) (HIV-1(NL4-3)) | further results
Cc1[nH]c2ncnc(-c3ccc(NC(=O)Nc4cccc(C(=O)NC(C)C)c4)cc3)c2c1C [Compound 7i, 3-(3-(4-(5,6-Dimethyl-7H-pyrrolo[2,3-d]pyrimidin-4-yl)phenyl)ureido)-N-isopropylbenzamide] | 42% | 47 min | 42% | >120 min | 34% | > 20000 nM | 77% | – | – | – | – | IC50 (ROCK-II; Table 1): > 10000 nM; IC50 (Limk1; Table 1, means of ≥2 experiments, read-out: IC50 (nM) Limk1): 80 nM
Cc1c[nH]c2ncnc(-c3ccc(NC(=O)Nc4cccc(C(=O)NC(C)C)c4)c(F)c3)c12 [Compound 7k, 3-(3-(2-Fluoro-4-(5-methyl-7H-pyrrolo[2,3-d]pyrimidin-4-yl)phenyl)ureido)-N-isopropylbenzamide] | 32% | 27 min | 35% | 55 min | 13% | 2390 nM | 29% | – | – | – | – | IC50 (ROCK-II; Table 2): 781 nM; AUC (iv) [3]: 5.5 µM·h; Cl (iv) [3]: 7.1 mL/min/kg; T1/2 (iv) [3]: 1.5 h; Yd (iv) [3]: 0.7 L/kg; F (%) (po) [3]: 0%; Cmax [3]: 5.1 µM; IC50 (Limk1; read-out: Limk1 IC50): 18 nM
Cc1c[nH]c2ncnc(-c3ccc(NC(=O)N(CCO)c4ccc(F)cc4)cc3)c12 [Compound 18e, 1-(4-Fluorophenyl)-1-(2-hydroxyethyl)-3-(4-(5-methyl-7H-pyrrolo[2,3-d]pyrimidin-4-yl)phenyl)urea] | 25% | 44 min | 13% | 52 min | 3% | 3920 nM | −4% | > 10000 nM | 3240 nM | – | – | –
Cc1c[nH]c2ncnc(-c3ccc(NC(=O)N(CCO)c4cccc(Cl)c4)cc3)c12 [Compound 18g, 1-(3-Chlorophenyl)-1-(2-hydroxyethyl)-3-(4-(5-methyl-7H-pyrrolo[2,3-d]pyrimidin-4-yl)phenyl)urea] | 42% | – | 31% | – | 2% | 15000 nM | – | – | 11300 nM | – | – | IC50 [4]: 372 nM; IC50 (Limk1; [5]): 67 nM; Microsomal Stability t1/2 (min) Rat [2]: 20 min; P450 % inh. at 10 μM 1A2 (P450 1A2): −19/31/2/42%
Cc1ccc(N(CCO)C(=O)Nc2ccc(-c3ncnc4[nH]cc(C)c34)cc2)cc1 [Compound 18k, 1-(2-Hydroxyethyl)-3-(4-(5-methyl-7H-pyrrolo[2,3-d]pyrimidin-4-yl)phenyl)-1-p-tolylurea] | 5% | 56 min | 24% | 39 min | −4% | 7630 nM | −5% | > 10000 nM | 5930 nM | – | – | AUC (iv) [3]: 15.6 µM·h; Cl (iv) [3]: 2.7 mL/min/kg; T1/2 (iv) [3]: 1.8 h; Yd (iv) [3]: 0.3 L/kg; F (%) (po) [3]: 24%; Cmax [3]: 9.4 µM; IC50 (Limk1; [5]): 37 nM
COc1cccc(N(CCO)C(=O)Nc2ccc(-c3ncnc4[nH]cc(C)c34)cc2)c1 [Compound 18m, 1-(2-Hydroxyethyl)-1-(3-methoxyphenyl)-3-(4-(5-methyl-7H-pyrrolo[2,3-d]pyrimidin-4-yl)phenyl)urea] | 44% | 38 min | 17% | 21 min | 3% | 4320 nM | – | – | 3220 nM | – | – | IC50 (Limk1; [5]): 100 nM; P450 % inh. at 10 μM 1A2 (P450 1A2): 3/17/3/44%
COc1ccc(N(CCO)C(=O)Nc2ccc(-c3ncnc4[nH]cc(C)c34)cc2)cc1 [Compound 18n, 1-(2-hydroxyethyl)-1-(4-methoxyphenyl)-3-(4-(5-methyl-7H-pyrrolo[2,3-d]pyrimidin-4-yl)phenyl)urea] | – | 56 min | – | 40 min | – | > 20000 nM | – | > 10000 nM | > 10000 nM | – | – | AUC (iv) [3]: 19.4 µM·h; Cl (iv) [3]: 2.1 mL/min/kg; T1/2 (iv) [3]: 2.2 h; Cmax [3]: 10.6 µM; IC50 (Limk1; [5]): 53 nM
Cc1[nH]c2ncnc(-c3ccc(NC(=O)N(CCO)c4ccc(Cl)cc4)c(F)c3)c2c1C [Compound 18s, 1-(4-Chlorophenyl)-3-(4-(5,6-dimethyl-7H-pyrrolo[2,3-d]pyrimidin-4-yl)-2-fluorophenyl)-1-(2-hydroxyethyl)urea] | 16% | 99 min | 13% | 44 min | 8% | – | 40% | > 10000 nM | – | – | – | AUC (iv) [3]: 14.5 µM·h; Cl (iv) [3]: 4.5 mL/min/kg; T1/2 (iv) [3]: 3.2 h; Yd (iv) [3]: 0.5 L/kg; F (%) (po) [3]: 29%; Cmax [3]: 12.3 µM
Cc1[nH]c2ncnc(-c3ccc(NC(=O)N(CCN)c4ccc(Cl)cc4)c(F)c3)c2c1C [Compound 18t, 1-(2-Amino-ethyl)-1-(4-chloro-phenyl)-3-[4-(5,6-dimethyl-7H-pyrrolo[2,3-d]pyrimidin-4-yl)-2-fluoro-phenyl]-urea] | −11% | >120 min | 24% | >120 min | 52% | – | 24% | > 10000 nM | – | – | – | –
Cc1c[nH]c2ncnc(N3CCC(c4nc5cc(C#N)ccc5[nH]4)CC3)c12 [Compound R8212] | – | – | – | – | – | – | – | – | – | 44 ± 6 nM | blocked | –
CC1(c2nc3ccc(C(=O)NC4CCC4)cc3[nH]2)CCN(c2ncnc3[nH]ccc23)CC1 [Compound R8482] | – | – | – | – | – | – | – | – | – | 41 ± 4 nM | blocked | –
Cc1c[nH]c2ncnc(-c3ccc(-c4nc5ccc(C(=O)NC6CCCC6)cc5[nH]4)c(F)c3)c12 [Compound R8584] | – | – | – | – | – | – | – | – | – | 50 ± 7 nM | blocked | –
CC(C)NC(=O)c1ccc2[nH]c(N3CCN(c4ncnc5[nH]cc(Cl)c45)C[C@@H]3C)nc2c1 [Compound R10543] | – | – | – | – | – | – | – | – | – | 5 ± 2 nM | blocked | –
CCOC(=O)c1ccc2nc(N3CCN(c4ncnc5[nH]cc(Cl)c45)[C@H](C)C3)[nH]c2c1 [Compound R10659] | – | – | – | – | – | – | – | – | – | 45 ± 6 nM | blocked | –
